The source of these data is patent publication US20020028953A1, “Process for preparing 6-(4-chlorophenyl)-2,2-dimethyl-7-phenyl-2,3-dihydro-1H-pyrrolizin-5-yl-acetic acid” (Merckle GmbH, priority 2000, published 2002).

Data set [1] can be described thus: stability of the solid form on drying, storage and aging. The class given is physicochemical.
Another data set is described as follows: analgesic action. The settings on record: result in words.
The target in data set [2] is cyclooxygenase (CO) and lipoxygenase (LO). Briefly: inhibitory action on the enzymes cyclooxygenase (CO) and lipoxygenase (LO). The data set is classed as biochemical.

Like-named read-outs stand apart in the source and are kept apart here.

Take `CC1(C)Cc2c(-c3ccccc3)c(-c3ccc(Cl)cc3)c(CC(=O)O)n2C1` [amorphous ML 3000]: the “chemical stability / oxidative decomposition” value in data set [1] is reported as “relatively severe oxidative decomposition”.

Turning to `CC1(C)Cc2c(-c3ccccc3)c(-c3ccc(Cl)cc3)c(CC(=O)O)n2C1` [polymorph A, 6-(4-chlorophenyl)-2,2-dimethyl-7-phenyl-2,3-dihydro-1H-pyrrolizin-5-ylacetic Acid], the “chemical stability / oxidative decomposition” value in data set [1] (listed as Polymorph A) is given as “high chemical stability”. Moreover, in data set [1] (solvates release solvent at room temperature), the “stability on drying and storage” value was “stable on drying and storage”. The analgesic action entry in “analgesic action” is recorded as “strong”. Further, the IC50LO/IC50CO in data set [2] (ratio of IC50 lipoxygenase to IC50 cyclooxygenase) was around 1. In data set [2] (result in words), the “cyclooxygenase and/or lipoxygenase inhibitor” value was “potent”.
